From patent US20230391772A1, “METHODS AND COMPOSITIONS FOR TARGETED PROTEIN DEGRADATION” (Ranok Therapeutics (Hangzhou) Co. Ltd., priority 2020, published 2023) come the findings set out here.

One test addresses T1, HSP90a protein (Homo sapiens, UniProt P07900).
T1 construct: purchased BPS Bioscience 50298
The experiment in a line: HSP90α-binding fluorescent polarization (FP) assay, BODIPY-labeled RNK04010 probe. To be noted: FP competition with RNK04010 (BODIPY-labeled), 5 nM, 300 min at 25° C. An outline of the steps:
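N-terminal HSP90a construct; tracer 5 nM final (FITC-geldanamycin or BODIPY-RNK04010, a labeled triazolone binder). Compounds 20 μM–5.2 nM, 2.5-fold steps. 25° C, 120 min (FITC) / 300 min (BODIPY). FP readout.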

Test [1] has as its target T2, KRAS(G12C) (Homo sapiens, UniProt P01116, G12C). Briefly: KRAS(G12C)/SOS1 homogeneous time-resolved fluorescence (HTRF) assay. As to conditions: absence of GTP, 4° C. for 3 hr, read-out: KRAS (G12C) binding. Set-up: purchased Cisbio 63ADK000CB16PEG. An outline of the steps:
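Three-hour incubation at 4 °C of 3-fold compound dilutions (lowest 1.02 nM) with KRAS(G12C), SOS1 and detection reagents, GTP absent. Disruption of the KRAS(G12C)/SOS1 complex detected by time-resolved fluorescence.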
(In general: TR-FRET usually uses a lanthanide donor and a delayed reading to cut background.)

The target of test [2] is T2, KRAS(G12C). The experiment in a line: KRAS(G12C) Western blot protein degradation assay in MIA PaCa-2 cells. As to conditions: 48 hr; for inhibition at 0.1562 µM: 156.2 nM; for inhibition at 0.3125 µM: 312.5 nM; for inhibition at 0.625 µM: 625 nM; for inhibition at 1.25 µM: 1250 nM; for inhibition at 2.5 µM: 2500 nM; for inhibition at 5 µM: 5000 nM; for inhibition at 10 µM: 10,000 nM. Also noted: host or cells: LU65A. It counts as cell-based. The method, then:
The following cancer cell lines were employed: BT-474 human breast carcinoma (ATCC, #HTB-20); MIA PaCa-2 human pancreatic carcinoma [2 copies KRAS(G12C)](ATCC, #CRL-1420); NCI-H23 human non-small cell lung cancer [1 copy KRAS(G12C)](ATCC, #CRL-5800); NCI-H358 human non-small cell lung cancer [1 copy KRAS(G12C)](ATCC, #CRL-5807); LU65A human lung carcinoma (Pharmaron, Beijing, China). Cell lines were cultured essentially according to ATCC and Pharmaron recommendations.
KRAS(G12C) Western Blot Protein Degradation Assay
The MIA PaCa-2 human pancreatic carcinoma cell line and LU65A human lung cancer cell line, which expresses KRAS(G12C), were seeded in 6- or 12-well tissue culture plates, and after 1 hr, test compounds were added at various concentrations and incubated at 37° C./5% CO2 for 48 hr (MIA Paca-2) and 6 hr (LU65A) respectively. Cells were then washed with cold PBS, aspirated and cold RIPA buffer containing a protease/phosphatase inhibitor cocktail was added to lyse cells. After centrifugation, the total protein concentrations of cell lysates were determined using the BCA protein assay. Samples were normalized for equivalent protein concentrations, 5×SDS-PAGE loading buffer added and denatured at 100° C. for 10 min. 20 μl of each sample/well was loaded on a SDS-PAGE gel and electrophoresed for 20 min at 80 V, then 120 V for 1.5 hr. Gels were then electroblotted to nitrocellulose membranes using a wet-transfer method at 250 mA for 2.5 hr. Membranes were incubated with blocking buffer for 1 hr and washed 3 times with TBST for 5 min. Membranes were then incubated with anti-KRAS (Sigma-Aldrich, #SAB1404011) and anti-β-Actin monoclonal antibodies (Cell Signaling Technology, #3700) diluted in blocking buffer at 4° C. overnight per the manufacturer's recommendations. After washing 3 times, blots were incubated with appropriately labeled secondary antibodies for 1 hr at room temperature and washed again. Fluorescence imaging and quantitation was performed using a LI-COR Odyssey. Results was analyzed using GraphPad Prism 7 software. Compound degradation of was determined by the following equation and DC50 values (the concentration at which 50% of the maximal degradation of KRAS occurs) calculated using GraphPad Prism 7 software:
% Inhibition=100−(D−B)/(S−B)*100%. • S: Fluorescence intensity of cells with antibody • D: Fluorescence intensity of compound-treated cells with antibody • B: Fluorescence intensity of cells without antibody
For orientation: A western blot detects proteins with antibodies after separation by electrophoresis.

Test [3] has as its system MIA PaCa-2 human pancreatic carcinoma. Briefly: MIA PaCa-2 CCK-8 proliferation assay. It counts as cell-based. To be noted: Homo sapiens, MIA PaCa-2, 72 h, MIA PaCa-2 cells. An outline of the steps:
(§1)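 Compounds were tested as a 3-fold series from 20 μM down to 1.02 nM in CCK-8 absorbance assays. The lines used were NCI-H23 and NCI-H358, each with 1 KRAS(G12C) copy, and MIA PaCa-2 with 2 copies. Inhibition was derived relative to DMSO controls, with a no-cell blank subtracted.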
In general terms: Tetrazolium assays rely on reduction of a dye to a coloured formazan, in cell work by metabolically active cells.

The test system of test [4] is NCI-H358 human non-small cell lung cancer. The experiment in a line: NCI-H358 CCK-8 proliferation assay. In kind it is cell-based. To be noted: NCI-H358 cells, 72 hr. An outline of the steps:
as §1

Test [5] concerns the target T2, KRAS(G12C). Briefly: KRAS(G12C) Western blot protein degradation assay in LU65A cells. Also noted: LU65A human lung cancer cell line, which expresses KRAS(G12C); host or cells: LU65A. As to conditions: 6 hr. It counts as cell-based. An outline of the steps: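 KRAS levels read by fluorescent Western blot (β-actin as reference) on BCA-normalized lysates. Exposure to a compound concentration range at 37 °C lasted 6 hr in LU65A and 48 hr in MIA PaCa-2; DC50 taken as half-maximal degradation concentration.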

T2 sequence (P01116 1-188 isoform P01116-2 G12C): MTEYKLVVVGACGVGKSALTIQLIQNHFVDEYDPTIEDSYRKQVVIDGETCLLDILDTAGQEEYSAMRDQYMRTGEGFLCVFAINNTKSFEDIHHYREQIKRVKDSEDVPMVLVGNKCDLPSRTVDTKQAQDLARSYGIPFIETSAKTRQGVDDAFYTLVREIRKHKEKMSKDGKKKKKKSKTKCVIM

In general, inhibition refers to the percentage by which the read-out fell short of the control. A word on the EC50: it is the midpoint of the concentration-response curve. A high value points to a need for much substance. Turning to `C=CC(=O)N1CCN(c2nc(OC[C@@H]3CCN(C(=O)C4CCN(Cc5ccc(-n6c(C(=O)NCC(F)(F)F)nnc6-c6cc(C(C)C)c(O)cc6O)cc5)CC4)C3)nc3c2CCN(c2cccc4cccc(Cl)c24)C3)C[C@@H]1CC#N` [Compound 185, 4-(4-((4-((R)-3-(((4-((S)-4-acryloyl-3-(cyanomethyl)piperazin-1-yl)-7-(8-chloronaphthalen-1-yl)-5,6,7,8-tetrahydropyrido[3,4-d]pyrimidin-2-yl)oxy)methyl)pyrrolidine-1-carbonyl)piperidin-1-yl)methyl)phenyl)-5-(2,4-dihydroxy-5-isopropylphenyl)-N-(2,2,2-trifluoroethyl)-4H-1,2,4-triazole-3-carboxamide], on HSP90a protein, the IC50 fell in the range of 0.1 to 1 µM. Further, the IC50 on KRAS(G12C) [1] was in the range of 0.1 to 1 µM. On KRAS(G12C) [2], this compound came in with an inhibition at 0.1562 µM of less than 33%, an inhibition at 0.3125 µM of less than 33%, an inhibition at 0.625 µM of less than 33% and an inhibition at 1.25 µM of 33 to 66%. At KRAS(G12C) [2], the inhibition at 2.5 µM is greater than 66%, the inhibition at 5 µM is greater than 66% and the inhibition at 10 µM is greater than 66%. Also, in test [3], the EC50 is less than 0.1 µM.
Compound `C=CC(=O)N1CCN(c2nc(OC[C@@H]3CCN(C(=O)c4cc(C(C)C)c(O)cc4OC)C3)nc3c2CCN(c2cccc4cccc(Cl)c24)C3)C[C@@H]1CC#N` [Compound 153, 2-((S)-1-acryloyl-4-(7-(8-chloronaphthalen-1-yl)-2-(((R)-1-(4-hydroxy-5-isopropyl-2-methoxybenzoyl)pyrrolidin-3-yl)methoxy)-5,6,7,8-tetrahydropyrido[3,4-d]pyrimidin-4-yl)piperazin-2-yl)acetonitrile] showed an IC50 on HSP90a protein greater than 1 µM. The EC50 in test [4] is greater than 1 µM. On KRAS(G12C) [2], this compound registered an inhibition at 0.1562 µM of less than 33%, an inhibition at 0.3125 µM of less than 33%, an inhibition at 0.625 µM of less than 33% and an inhibition at 1.25 µM of less than 33%. In addition, on KRAS(G12C) [2], the inhibition at 2.5 µM was less than 33%, the inhibition at 5 µM was less than 33% and the inhibition at 10 µM was less than 33%. Besides, in test [3], the EC50 is greater than 1 µM.
In turn, `C=CC(=O)N1CCN(c2nc(OC[C@@H]3CCN(C(=O)C4CCN(Cc5ccc(-n6c(O)nnc6-c6cc(C(C)C)c(O)cc6O)cc5)CC4)C3)nc3c2CCN(c2cccc4cccc(Cl)c24)C3)C[C@@H]1CC#N` [Compound 148, 2-((S)-1-acryloyl-4-(7-(8-chloronaphthalen-1-yl)-2-(((R)-1-(1-(4-(3-(2,4-dihydroxy-5-isopropylphenyl)-5-hydroxy-4H-1,2,4-triazol-4-yl)benzyl)piperidine-4-carbonyl)pyrrolidin-3-yl)methoxy)-5,6,7,8-tetrahydropyrido[3,4-d]pyrimidin-4-yl)piperazin-2-yl)acetonitrile] yielded an IC50 on HSP90a protein of less than 0.1 µM. Moreover, the EC50 in test [4] lay in the range of 0.1 to 1 µM. The IC50 on KRAS(G12C) [1] lay within 0.1 to 1 µM. On KRAS(G12C) [2], this compound gave an inhibition at 0.1562 µM of less than 33%, an inhibition at 0.3125 µM of less than 33%, an inhibition at 0.625 µM of less than 33% and an inhibition at 1.25 µM of less than 33%. Besides, on KRAS(G12C) [2], the inhibition at 2.5 µM was less than 33%, the inhibition at 5 µM was less than 33% and the inhibition at 10 µM is 33 to 66%. The EC50 in test [3] is 0.1 to 1 µM.
As to `C=CC(=O)N1CCN(c2nc(OC[C@@H]3CCN(C(=O)c4cc(C(C)C)c(OC)cc4O)C3)nc3c2CCN(c2cccc4cccc(Cl)c24)C3)C[C@@H]1CC#N` [Compound 159, 2-((S)-1-acryloyl-4-(7-(8-chloronaphthalen-1-yl)-2-(((R)-1-(2-hydroxy-5-isopropyl-4-methoxybenzoyl)pyrrolidin-3-yl)methoxy)-5,6,7,8-tetrahydropyrido[3,4-d]pyrimidin-4-yl)piperazin-2-yl)acetonitrile], on HSP90a protein, the IC50 was greater than 1 µM. In test [4], this compound gave an EC50 greater than 1 µM. At KRAS(G12C) [1], the IC50 was greater than 1 µM. At KRAS(G12C) [2], the inhibition at 0.1562 µM is less than 33%, the inhibition at 0.3125 µM is less than 33%, the inhibition at 0.625 µM is less than 33% and the inhibition at 1.25 µM is less than 33%. At KRAS(G12C) [2], this compound returned an inhibition at 2.5 µM of less than 33%, an inhibition at 5 µM of less than 33% and an inhibition at 10 µM of less than 33%.
On HSP90a protein, `C=CC(=O)N1CCN(c2nc(OC[C@@H]3CCN(C(=O)c4cc(CC)c(O)cc4O)C3)nc3c2CCN(c2cccc4cccc(Cl)c24)C3)C[C@@H]1CC#N` [Compound 158, 2-((S)-1-acryloyl-4-(7-(8-chloronaphthalen-1-yl)-2-(((R)-1-(5-ethyl-2,4-dihydroxybenzoyl)pyrrolidin-3-yl)methoxy)-5,6,7,8-tetrahydropyrido[3,4-d]pyrimidin-4-yl)piperazin-2-yl)acetonitrile] yielded an IC50 greater than 1 µM. For the same compound, the concentration giving a half-maximal response (EC50) in test [4] is greater than 1 µM. The IC50 at KRAS(G12C) [1] is greater than 1 µM. Moreover, at KRAS(G12C) [2], the inhibition at 0.1562 µM is less than 33%, the inhibition at 0.3125 µM was less than 33%, the inhibition at 0.625 µM was less than 33% and the inhibition at 1.25 µM is less than 33%. On KRAS(G12C) [2], the inhibition at 2.5 µM was less than 33%, the inhibition at 5 µM was less than 33% and the inhibition at 10 µM is less than 33%. For the same compound, in test [3], the EC50 was greater than 1 µM.
A word on the DC50: it is the concentration at which degradation of the target reaches its halfway point. Read a high DC50 as degradation only at high concentration. For `C=CC(=O)N1CCN(c2nc(OC[C@@H]3CCN(CCC(=O)c4cc(C(C)C)c(O)cc4O)C3)nc3c2CCN(c2cccc4cccc(Cl)c24)C3)C[C@@H]1CC#N` [Compound 186, 2-((S)-1-acryloyl-4-(7-(8-chloronaphthalen-1-yl)-2-(((R)-1-(3-(2,4-dihydroxy-5-isopropylphenyl)-3-oxopropyl)pyrrolidin-3-yl)methoxy)-5,6,7,8-tetrahydropyrido[3,4-d]pyrimidin-4-yl)piperazin-2-yl)acetonitrile, trifluoroacetic acid], the IC50 at HSP90a protein was greater than 1 µM; at KRAS(G12C) [1], 0.1 to 1 µM. Further, the DC50 at KRAS(G12C) [5] is greater than 1 µM. This compound showed an inhibition at 10 µM against KRAS(G12C) [2] of 33 to 66%.
At HSP90a protein, `C=CC(=O)N1CCN(c2nc(OC[C@@H]3CCN(C(=O)c4cc(C(C)C)c(O)cc4O)C3)nc3c2CCN(c2cccc4cccc(Cl)c24)C3)C[C@@H]1CC#N` [Compound 157, 2-((S)-1-acryloyl-4-(7-(8-chloronaphthalen-1-yl)-2-(((R)-1-(2,4-dihydroxy-5-isopropylbenzoyl)pyrrolidin-3-yl)methoxy)-5,6,7,8-tetrahydropyrido[3,4-d]pyrimidin-4-yl)piperazin-2-yl)acetonitrile] came in with an IC50 greater than 1 µM. In test [4], this compound yielded an EC50 greater than 1 µM. Besides, on KRAS(G12C) [1], the IC50 is greater than 1 µM. Besides, at KRAS(G12C) [2], the inhibition at 0.1562 µM was less than 33%, the inhibition at 0.3125 µM is less than 33%, the inhibition at 0.625 µM is less than 33% and the inhibition at 1.25 µM is less than 33%. On KRAS(G12C) [2], this compound yielded an inhibition at 2.5 µM of less than 33%, an inhibition at 5 µM of less than 33% and an inhibition at 10 µM of less than 33%.
